Our source for the Dmax and DC50 values is US12257247B2 (Monte Rosa Therapeutics AG, priority 2023, dated 2025).

The target of this assay is T1, VAV1 (Homo sapiens, UniProt P15498+Q96SW2).
T1 construct: A heterozygous VAV1 C-terminal HiBiT knock-in pool was generated at Monte Rosa Therapeutics from a clonal Jurkat cell; endogenous in cells; host or cells: Jurkat clone stably expressing LgBiT, homozygous GSPT1-G575N; heterozygous VAV1-HiBiT knock-in pool
Kind of assay: VAV1 degradation activity, VAV1-HiBiT knock-in Jurkat luminescence assay (Example A, Table 1). In kind it is cell-based. Conditions: VAV1-HiBiT knock-in Jurkat cells; for Dmax: Jurkat. Put shortly: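 Luminescence was measured at 6 and 24 h after adding compound (10 μM stock) to VAV1-HiBiT knock-in Jurkat cells, which had been pre-incubated ~16 h at 37° C. in RPMI/10% FBS containing Endurazine. EC50 values came from control-normalised responses fitted to a 3-parameter logistic model with hillslope fixed at 1.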
(The HiBiT peptide binds its large partner to form an active luciferase.)

[1] abbreviates: luminescence read at 6 and 24 hours, read-out: VAV1 Dmax %.
Where [2] appears, read: luminescence read at 6 and 24 hours, read-out: VAV1 Dmax %, class.
[3] abbreviates: luminescence read at 6 and 24 hours, read-out: VAV1 DC50.
Where [4] appears, read: luminescence read at 6 and 24 hours, read-out: VAV1 DC50 (nM), class.
[5] abbreviates: luminescence read at 6 and 24 hours after compound addition, read-out: VAV1 Dmax %.
Where [6] appears, read: luminescence read at 6 and 24 hours after compound addition, read-out: VAV1 Dmax %, class.
Where [7] appears, read: luminescence read at 6 and 24 hours after compound addition, read-out: VAV1 DC50.
[8] abbreviates: luminescence read at 6 and 24 hours after compound addition, read-out: VAV1 DC50 (nM), class.

Where two headings read alike, the source gives them in different places. Some results are limits rather than exact numbers.

Turning to `Cc1cc(-c2cccc(C3CCC(=O)NC3=O)c2Cl)ccc1-n1ccccc1=O` (centres unmarked) [Compound 199, 3-(2-chloro-3′-methyl-4′-(2-oxopyridin-1(2H)-yl)-[1,1′-biphenyl]-3-yl)piperidine-2,6-dione], the Dmax under setting [1] is 66.8% and the Dmax under setting [2] lay within 60 to 90%. Further, the DC50 runs as follows: under setting [3], 1280 nM; under setting [4], > 1000 nM.

Turning to `CN1CCN(CCOc2ccc(-c3cccc(C4CCC(=O)NC4=O)c3Cl)cc2)CC1` (centres unmarked) [Compound 104], the Dmax by setting is: under setting [1], 81.7%; under setting [2], 60 to 90%. The DC50 by setting is: under setting [3], 59.7 nM; under setting [4], ≤ 100 nM.

As for `COc1ccc(-c2cccc(C3CCC(=O)NC3=O)c2Cl)cc1OC(F)F` (centres unmarked) [Compound 108], the Dmax by setting is: under setting [1], 47.8%; under setting [2], < 60%. For the same compound, the DC50 by setting is: under setting [3], ≥ 10000 nM; under setting [4], > 1000 nM.

`Cn1ccc(Cn2ccc3cc(-c4cccc(C5CCC(=O)NC5=O)c4Cl)ccc32)n1` (centres unmarked) [Compound 499, 3-(2-chloro-3-(1-((1-methyl-1H-pyrazol-3-yl)methyl)-1H-indol-5-yl)phenyl)piperidine-2,6-dione]: the Dmax under setting [5] is 97.9% and the Dmax under setting [6] was > 90%. Also, the DC50 reads like this: under setting [7], 5.45 nM; under setting [8], ≤ 100 nM.

Consider `O=C1CCC(c2cccc(-c3ccc(Oc4ncccn4)cc3)c2Cl)C(=O)N1` (centres unmarked) [Compound 360, 3-(2-chloro-4′-(pyrimidin-2-yloxy)-[1,1′-biphenyl]-3-yl)piperidine-2,6-dione], for which the Dmax reads like this: under setting [1], 96.5%; under setting [2], > 90%. The DC50 is, setting by setting: under setting [3], 6.85 nM; under setting [4], ≤ 100 nM.

On to `Cc1cccc(=O)n1Cc1ccc(-c2cccc(C3CCC(=O)NC3=O)c2Cl)cc1` (centres unmarked) [Compound 184, 3-(2-chloro-4′-((6-methyl-2-oxopyridin-1(2H)-yl)methyl)-[1,1′-biphenyl]-3-yl)piperidine-2,6-dione], for which the Dmax is 92.1% under setting [1] and > 90% under setting [2]. In addition, the DC50 is 11.6 nM under setting [3] and ≤ 100 nM under setting [4].

Turning to `C[C@H]1COCC(=O)N1Cc1ccc(-c2cccc(C3CCC(=O)NC3=O)c2Cl)cc1` (some centres unmarked) [Compound 265], the Dmax is 88% under setting [1] and 60 to 90% under setting [2]. In addition, the DC50 runs as follows: under setting [3], 32.5 nM; under setting [4], ≤ 100 nM.

In the case of `O=C1CCC(c2cccc(-c3ccc(N4CCCCC4=O)cc3)c2Cl)C(=O)N1` (centres unmarked) [Compound 161, 3-(2-chloro-4′-(2-oxopiperidin-1-yl)-[1,1′-biphenyl]-3-yl)piperidine-2,6-dione], the Dmax is, setting by setting: under setting [1], 95.4%; under setting [2], > 90%. The half-maximal degradation concentration (DC50) runs as follows: under setting [3], 10.1 nM; under setting [4], ≤ 100 nM.

On to `O=C1CCC(c2cccc(-c3ccc(Cn4ccccc4=O)cc3)c2)C(=O)N1` (centres unmarked) [Compound 239, 3-(4′-((2-oxopyridin-1(2H)-yl)methyl)-[1,1′-biphenyl]-3-yl)piperidine-2,6-dione], for which the Dmax was 63.4% under setting [1] and 60 to 90% under setting [2]. Besides, the DC50 was 341 nM under setting [3] and 100 to 1000 nM under setting [4].

As to `Cn1ccc(CCc2ccc(-c3cccc(C4CCC(=O)NC4=O)c3Cl)cc2)n1` (centres unmarked) [Compound 194, 3-(2-chloro-4′-(2-(1-methyl-1H-pyrazol-3-yl)ethyl)-[1,1′-biphenyl]-3-yl)piperidine-2,6-dione], the greatest degradation seen (Dmax) is 94.1% under setting [1] and > 90% under setting [2]. Besides, the DC50 under setting [3] worked out at 18.4 nM and the DC50 under setting [4] was ≤ 100 nM.

Consider `O=C1CCC(c2cccc(-c3ccc4[nH]ncc4c3)c2Cl)C(=O)N1` (centres unmarked) [Compound 485, 3-[2-chloro-3-(1H-indazol-5-yl)phenyl]piperidine-2,6-dione], for which the Dmax by setting is: under setting [5], 89.7%; under setting [6], 60 to 90%. Moreover, the DC50 by setting is: under setting [7], 41 nM; under setting [8], ≤ 100 nM.

For orientation: Dmax means the largest share of the target that was removed. In general, DC50 refers to the midpoint of the concentration-degradation curve.
